Measurements published in the kinase profiling compilation of Christmann-Franck et al. (2016).

Columns and labels:
Test in all cases: radiometric filter-binding kinase assay, Kinase HotSpot
Conditions in all cases: compound 0.5 µM; ATP 10 µM
ACVR1 (human) = ACVR1 (human) (UniProt Q04771)
AURKB (human) = AURKB (human) (UniProt Q96GD4)
BTK (human) = BTK (human) (UniProt Q06187)
CDK2 CCNE1 (human) = CDK2 CCNE1 (human) (UniProt P24941+P24864)
CDK7 CCNH MNAT1 (human) = CDK7 CCNH MNAT1 (human) (UniProt P50613+P51948+P51946)
CHEK1 (human) = CHEK1 (human) (UniProt O14757)
CLK2 (human) = CLK2 (human) (UniProt P49760)
CSNK1D (human) = CSNK1D (human) (UniProt P48730)
DAPK2 (human) = DAPK2 (human) (UniProt Q9UIK4)
EPHA3 (human) = EPHA3 (human) (UniProt P29320)
EPHB4 (human) = EPHB4 (human) (UniProt P54760)
ERBB4 (human) = ERBB4 (human) (UniProt Q15303)
FGFR2 (human) = FGFR2 (human) (UniProt P21802)
Chain of FGFR2 (human) (P21802 whole entry, looked up): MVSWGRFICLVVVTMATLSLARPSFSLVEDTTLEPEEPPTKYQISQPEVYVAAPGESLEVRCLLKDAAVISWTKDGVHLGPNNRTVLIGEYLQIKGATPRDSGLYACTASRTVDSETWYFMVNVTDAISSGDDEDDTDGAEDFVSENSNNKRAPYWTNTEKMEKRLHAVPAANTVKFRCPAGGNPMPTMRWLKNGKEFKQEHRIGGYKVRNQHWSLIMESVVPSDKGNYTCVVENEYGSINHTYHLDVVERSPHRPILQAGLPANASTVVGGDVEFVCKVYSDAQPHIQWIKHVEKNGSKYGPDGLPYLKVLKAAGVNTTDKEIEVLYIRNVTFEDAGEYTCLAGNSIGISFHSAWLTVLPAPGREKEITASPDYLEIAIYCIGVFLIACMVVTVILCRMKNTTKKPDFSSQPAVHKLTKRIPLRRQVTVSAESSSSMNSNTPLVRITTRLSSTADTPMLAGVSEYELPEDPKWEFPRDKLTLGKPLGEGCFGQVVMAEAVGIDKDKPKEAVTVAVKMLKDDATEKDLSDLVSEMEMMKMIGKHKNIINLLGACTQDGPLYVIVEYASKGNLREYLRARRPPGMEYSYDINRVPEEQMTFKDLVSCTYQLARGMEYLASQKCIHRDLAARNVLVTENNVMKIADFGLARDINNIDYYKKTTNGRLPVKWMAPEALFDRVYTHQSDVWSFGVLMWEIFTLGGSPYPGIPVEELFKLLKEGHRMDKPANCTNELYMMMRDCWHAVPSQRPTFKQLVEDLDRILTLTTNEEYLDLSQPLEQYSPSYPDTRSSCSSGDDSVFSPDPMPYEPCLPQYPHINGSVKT

FRK (human) = FRK (human) (UniProt P42685)
HIPK2 (human) = HIPK2 (human) (UniProt Q9H2X6)
IRAK1 (human) = IRAK1 (human) (UniProt P51617)
[1] = biological target: JAK1 JH1 catalytic (human) (UniProt P23458)
Chain of JAK1 JH1 catalytic (human) (P23458 whole entry, looked up): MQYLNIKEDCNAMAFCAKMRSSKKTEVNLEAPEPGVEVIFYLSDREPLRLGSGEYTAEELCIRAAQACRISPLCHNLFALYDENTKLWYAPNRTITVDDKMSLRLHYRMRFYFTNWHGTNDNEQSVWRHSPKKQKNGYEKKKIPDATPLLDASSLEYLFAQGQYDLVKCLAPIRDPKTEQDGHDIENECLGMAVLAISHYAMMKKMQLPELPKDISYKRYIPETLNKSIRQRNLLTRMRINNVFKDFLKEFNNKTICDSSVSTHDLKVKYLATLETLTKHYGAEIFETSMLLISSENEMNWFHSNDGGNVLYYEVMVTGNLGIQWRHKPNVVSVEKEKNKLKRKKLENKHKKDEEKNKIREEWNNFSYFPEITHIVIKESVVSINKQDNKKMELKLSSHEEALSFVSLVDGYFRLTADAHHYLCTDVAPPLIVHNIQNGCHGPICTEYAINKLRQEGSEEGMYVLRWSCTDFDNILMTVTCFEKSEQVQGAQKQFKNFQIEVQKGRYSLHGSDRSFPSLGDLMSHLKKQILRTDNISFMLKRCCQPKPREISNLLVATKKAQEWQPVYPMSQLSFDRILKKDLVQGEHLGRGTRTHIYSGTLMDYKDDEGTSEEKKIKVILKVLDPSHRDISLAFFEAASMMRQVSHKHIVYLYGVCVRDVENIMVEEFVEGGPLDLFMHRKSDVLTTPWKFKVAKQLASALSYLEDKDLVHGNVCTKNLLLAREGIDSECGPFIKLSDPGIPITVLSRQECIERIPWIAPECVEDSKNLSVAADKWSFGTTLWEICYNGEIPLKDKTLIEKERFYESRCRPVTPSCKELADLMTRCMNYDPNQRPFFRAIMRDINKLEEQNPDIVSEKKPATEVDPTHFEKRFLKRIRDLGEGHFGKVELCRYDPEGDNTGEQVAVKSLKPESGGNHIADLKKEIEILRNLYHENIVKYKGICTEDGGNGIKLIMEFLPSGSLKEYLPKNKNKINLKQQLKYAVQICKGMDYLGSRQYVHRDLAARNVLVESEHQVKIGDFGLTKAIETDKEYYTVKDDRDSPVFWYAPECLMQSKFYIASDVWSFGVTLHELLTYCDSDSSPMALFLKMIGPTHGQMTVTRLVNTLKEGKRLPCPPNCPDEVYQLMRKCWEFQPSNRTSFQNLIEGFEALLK

MAPK3 (human) = MAPK3 (human) (UniProt P27361)
MATK (human) = MATK (human) (UniProt P42679)
MUSK (human) = MUSK (human) (UniProt O15146)
Chain of MUSK (human) (O15146 whole entry, looked up): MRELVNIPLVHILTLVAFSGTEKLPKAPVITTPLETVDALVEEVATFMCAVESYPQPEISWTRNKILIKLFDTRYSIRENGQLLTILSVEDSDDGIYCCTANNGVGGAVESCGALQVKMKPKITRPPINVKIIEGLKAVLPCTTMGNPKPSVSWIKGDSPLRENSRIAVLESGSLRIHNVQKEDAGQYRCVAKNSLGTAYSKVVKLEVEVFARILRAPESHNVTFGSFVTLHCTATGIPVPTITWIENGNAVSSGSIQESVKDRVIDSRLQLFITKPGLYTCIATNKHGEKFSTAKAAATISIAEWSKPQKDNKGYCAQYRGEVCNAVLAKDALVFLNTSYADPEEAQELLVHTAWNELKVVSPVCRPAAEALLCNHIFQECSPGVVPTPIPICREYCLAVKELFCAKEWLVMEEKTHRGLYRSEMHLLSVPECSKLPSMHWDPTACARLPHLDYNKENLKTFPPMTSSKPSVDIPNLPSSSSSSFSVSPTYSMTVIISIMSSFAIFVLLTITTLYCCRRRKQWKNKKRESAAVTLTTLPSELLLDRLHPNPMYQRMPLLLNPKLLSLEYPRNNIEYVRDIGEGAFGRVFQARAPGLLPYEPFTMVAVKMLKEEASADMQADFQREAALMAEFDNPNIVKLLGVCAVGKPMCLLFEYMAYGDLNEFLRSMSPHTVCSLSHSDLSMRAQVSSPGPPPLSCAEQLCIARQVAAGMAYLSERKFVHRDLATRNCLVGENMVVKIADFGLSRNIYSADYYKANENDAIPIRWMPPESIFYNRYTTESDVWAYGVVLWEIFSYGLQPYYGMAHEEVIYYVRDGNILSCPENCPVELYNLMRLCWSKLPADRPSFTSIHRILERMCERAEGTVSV

MYLK (human) = MYLK (human) (UniProt Q15746)
MYLK2 (human) = MYLK2 (human) (UniProt Q9H1R3)
Chain of MYLK2 (human) (Q9H1R3 whole entry, looked up): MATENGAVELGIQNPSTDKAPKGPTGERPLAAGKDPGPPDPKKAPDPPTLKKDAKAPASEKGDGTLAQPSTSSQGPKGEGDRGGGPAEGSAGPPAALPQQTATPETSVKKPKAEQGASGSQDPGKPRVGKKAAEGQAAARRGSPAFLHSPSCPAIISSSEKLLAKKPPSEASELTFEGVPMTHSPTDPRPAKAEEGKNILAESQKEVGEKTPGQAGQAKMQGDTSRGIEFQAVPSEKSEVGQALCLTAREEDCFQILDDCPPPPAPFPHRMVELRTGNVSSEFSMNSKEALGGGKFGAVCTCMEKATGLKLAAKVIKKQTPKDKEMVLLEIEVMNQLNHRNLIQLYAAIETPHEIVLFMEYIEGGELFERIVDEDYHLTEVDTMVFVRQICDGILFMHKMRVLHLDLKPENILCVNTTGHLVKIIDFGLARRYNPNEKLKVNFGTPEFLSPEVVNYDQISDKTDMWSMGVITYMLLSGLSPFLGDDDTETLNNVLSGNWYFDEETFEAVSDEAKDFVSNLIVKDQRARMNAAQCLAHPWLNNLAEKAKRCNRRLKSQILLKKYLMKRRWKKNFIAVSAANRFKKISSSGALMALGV

NEK1 (human) = NEK1 (human) (UniProt Q96PY6)
NEK2 (human) = NEK2 (human) (UniProt P51955)
NEK4 (human) = NEK4 (human) (UniProt P51957)
NEK6 (human) = NEK6 (human) (UniProt Q9HC98)
NEK9 (human) = NEK9 (human) (UniProt Q8TD19)
Chain of NEK9 (human) (Q8TD19 whole entry, looked up): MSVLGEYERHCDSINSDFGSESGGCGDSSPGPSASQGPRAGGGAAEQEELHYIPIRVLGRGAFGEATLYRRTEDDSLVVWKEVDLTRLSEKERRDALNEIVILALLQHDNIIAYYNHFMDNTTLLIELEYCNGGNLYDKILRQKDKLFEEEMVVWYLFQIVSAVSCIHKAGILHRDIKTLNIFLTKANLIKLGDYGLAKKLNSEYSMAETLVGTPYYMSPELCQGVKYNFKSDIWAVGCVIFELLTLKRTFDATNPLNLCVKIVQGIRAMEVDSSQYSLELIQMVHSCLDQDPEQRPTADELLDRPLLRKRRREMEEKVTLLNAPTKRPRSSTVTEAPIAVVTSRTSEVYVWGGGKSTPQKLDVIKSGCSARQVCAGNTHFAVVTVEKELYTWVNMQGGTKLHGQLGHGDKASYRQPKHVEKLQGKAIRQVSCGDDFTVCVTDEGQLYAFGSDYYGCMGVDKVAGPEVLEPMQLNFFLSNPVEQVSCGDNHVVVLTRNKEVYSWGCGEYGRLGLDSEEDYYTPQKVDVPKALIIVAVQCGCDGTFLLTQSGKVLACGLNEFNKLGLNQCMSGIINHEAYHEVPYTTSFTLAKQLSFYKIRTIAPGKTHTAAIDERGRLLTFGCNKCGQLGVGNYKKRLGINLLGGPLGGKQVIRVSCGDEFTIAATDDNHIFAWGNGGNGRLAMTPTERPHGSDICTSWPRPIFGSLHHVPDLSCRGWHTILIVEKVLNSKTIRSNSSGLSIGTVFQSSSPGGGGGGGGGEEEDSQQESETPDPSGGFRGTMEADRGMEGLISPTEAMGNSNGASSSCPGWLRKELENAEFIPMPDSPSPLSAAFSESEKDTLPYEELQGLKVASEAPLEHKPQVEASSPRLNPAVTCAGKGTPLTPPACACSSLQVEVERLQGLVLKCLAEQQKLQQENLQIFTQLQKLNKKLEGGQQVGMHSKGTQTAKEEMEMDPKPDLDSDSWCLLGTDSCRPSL

NUAK2 (human) = NUAK2 (human) (UniProt Q9H093)
PDPK1 (human) = PDPK1 (human) (UniProt O15530)
PLK3 (human) = PLK3 (human) (UniProt Q9H4B4)
PRKCD (human) = PRKCD (human) (UniProt Q05655)
PRKCH (human) = PRKCH (human) (UniProt P24723)
PRKD2 (human) = PRKD2 (human) (UniProt Q9BZL6)
PTK2B (human) = PTK2B (human) (UniProt Q14289)
RET (human) = RET (human) (UniProt P07949)
RPS6KA5 KD2 (human) = RPS6KA5 KD2 (human) (UniProt O75582)
SIK2 (human) = SIK2 (human) (UniProt Q9H0K1)
SRMS (human) = SRMS (human) (UniProt Q9H3Y6)
SRPK2 (human) = SRPK2 (human) (UniProt P78362)
TBK1 (human) = TBK1 (human) (UniProt Q9UHD2)
TEC (human) = TEC (human) (UniProt P42680)
TGFBR1 (human) = TGFBR1 (human) (UniProt P36897)

Chain of BTK (human) (Q06187 whole entry, looked up): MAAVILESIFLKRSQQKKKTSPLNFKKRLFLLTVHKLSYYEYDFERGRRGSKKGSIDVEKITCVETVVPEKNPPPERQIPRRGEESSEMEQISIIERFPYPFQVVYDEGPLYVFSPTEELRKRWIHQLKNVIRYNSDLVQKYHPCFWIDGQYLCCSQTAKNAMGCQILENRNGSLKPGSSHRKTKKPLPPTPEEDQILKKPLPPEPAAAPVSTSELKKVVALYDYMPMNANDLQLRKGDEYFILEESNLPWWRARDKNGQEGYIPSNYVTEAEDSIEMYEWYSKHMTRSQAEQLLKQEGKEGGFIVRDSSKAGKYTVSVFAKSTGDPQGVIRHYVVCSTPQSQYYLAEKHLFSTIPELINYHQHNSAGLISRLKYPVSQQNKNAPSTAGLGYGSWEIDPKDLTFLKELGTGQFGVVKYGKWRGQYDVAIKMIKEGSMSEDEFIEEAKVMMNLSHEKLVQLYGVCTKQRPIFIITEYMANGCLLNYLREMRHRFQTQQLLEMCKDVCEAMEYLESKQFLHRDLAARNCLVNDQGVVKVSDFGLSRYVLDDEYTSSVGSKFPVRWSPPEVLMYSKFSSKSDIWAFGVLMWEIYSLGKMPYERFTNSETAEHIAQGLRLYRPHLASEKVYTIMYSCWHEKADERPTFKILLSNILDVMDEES

FC(F)(F)c1ccc(/C=C/c2nc(COc3ccc(CCCCn4ccnn4)cc3)co2)cc1
residual activity (ACVR1 (human)): 101%
residual activity (AURKB (human)): 98%
residual activity (BTK (human)): 98.2%
residual activity (CDK2 CCNE1 (human)): 96.3%
residual activity (CDK7 CCNH MNAT1 (human)): 107%
residual activity (CHEK1 (human)): 108%
residual activity (CLK2 (human)): 89.6%
residual activity (CSNK1D (human)): 96.6%
residual activity (DAPK2 (human)): 107%
residual activity (EPHA3 (human)): 92.7%
residual activity (EPHB4 (human)): 92.2%
residual activity (ERBB4 (human)): 99.6%
residual activity (FGFR2 (human)): 96.7%
residual activity (FRK (human)): 99%
residual activity (HIPK2 (human)): 90.2%
residual activity (IRAK1 (human)): 99.5%
residual activity [1]: 103%
residual activity (MAPK3 (human)): 100%
residual activity (MATK (human)): 95%
residual activity (MUSK (human)): 104%
residual activity (MYLK (human)): 94.8%
residual activity (MYLK2 (human)): 101%
residual activity (NEK1 (human)): 94.5%
residual activity (NEK2 (human)): 96.2%
residual activity (NEK4 (human)): 90%
residual activity (NEK6 (human)): 92.6%
residual activity (NEK9 (human)): 95.5%
residual activity (NUAK2 (human)): 101%
residual activity (PDPK1 (human)): 104%
residual activity (PLK3 (human)): 107%
residual activity (PRKCD (human)): 99.6%
residual activity (PRKCH (human)): 87.6%
residual activity (PRKD2 (human)): 96.9%
residual activity (PTK2B (human)): 103%
residual activity (RET (human)): 101%
residual activity (RPS6KA5 KD2 (human)): 111%
residual activity (SIK2 (human)): 103%
residual activity (SRMS (human)): 93.5%
residual activity (SRPK2 (human)): 101%
residual activity (TBK1 (human)): 101%
residual activity (TEC (human)): 86.4%
residual activity (TGFBR1 (human)): 98.8%

c1ccc(-c2cnc(Nc3ccc(OCCN4CCCC4)cc3)s2)cc1
residual activity (ACVR1 (human)): 164%
residual activity (AURKB (human)): 75.8%
residual activity (BTK (human)): 101%
residual activity (CDK2 CCNE1 (human)): 85.7%
residual activity (CDK7 CCNH MNAT1 (human)): 102%
residual activity (CHEK1 (human)): 86.6%
residual activity (CLK2 (human)): 102%
residual activity (CSNK1D (human)): 95.8%
residual activity (DAPK2 (human)): 90.3%
residual activity (EPHA3 (human)): 98.7%
residual activity (EPHB4 (human)): 91.9%
residual activity (ERBB4 (human)): 101%
residual activity (FGFR2 (human)): 92.7%
residual activity (FRK (human)): 83%
residual activity (HIPK2 (human)): 97.5%
residual activity (IRAK1 (human)): 109%
residual activity [1]: 101%
residual activity (MAPK3 (human)): 99.8%
residual activity (MATK (human)): 94.3%
residual activity (MUSK (human)): 84.2%
residual activity (MYLK (human)): 96.9%
residual activity (MYLK2 (human)): 28.7%
residual activity (NEK1 (human)): 94.2%
residual activity (NEK2 (human)): 90.6%
residual activity (NEK4 (human)): 96.1%
residual activity (NEK6 (human)): 102%
residual activity (NEK9 (human)): 101%
residual activity (NUAK2 (human)): 107%
residual activity (PDPK1 (human)): 84.9%
residual activity (PLK3 (human)): 98%
residual activity (PRKCD (human)): 91.3%
residual activity (PRKCH (human)): 88.2%
residual activity (PRKD2 (human)): 82.2%
residual activity (PTK2B (human)): 77.2%
residual activity (RET (human)): 84.2%
residual activity (RPS6KA5 KD2 (human)): 104%
residual activity (SIK2 (human)): 45.6%
residual activity (SRMS (human)): 96.5%
residual activity (SRPK2 (human)): 103%
residual activity (TBK1 (human)): 87.1%
residual activity (TEC (human)): 106%
residual activity (TGFBR1 (human)): 97%

CCOc1cc2ncnc(Nc3cccc(Br)c3)c2cc1OCC
residual activity (ACVR1 (human)): 97.1%
residual activity (AURKB (human)): 91.9%
residual activity (BTK (human)): 72.7%
residual activity (CDK2 CCNE1 (human)): 94.4%
residual activity (CDK7 CCNH MNAT1 (human)): 93%
residual activity (CHEK1 (human)): 115%
residual activity (CLK2 (human)): 92.6%
residual activity (CSNK1D (human)): 103%
residual activity (DAPK2 (human)): 103%
residual activity (EPHA3 (human)): 83.3%
residual activity (EPHB4 (human)): 43%
residual activity (ERBB4 (human)): 34.3%
residual activity (FGFR2 (human)): 96.3%
residual activity (FRK (human)): 85.9%
residual activity (HIPK2 (human)): 96.8%
residual activity (IRAK1 (human)): 95.1%
residual activity [1]: 102%
residual activity (MAPK3 (human)): 113%
residual activity (MATK (human)): 90.5%
residual activity (MUSK (human)): 92.6%
residual activity (MYLK (human)): 89.4%
residual activity (MYLK2 (human)): 93.5%
residual activity (NEK1 (human)): 99.2%
residual activity (NEK2 (human)): 98.7%
residual activity (NEK4 (human)): 84.8%
residual activity (NEK6 (human)): 106%
residual activity (NEK9 (human)): 96.7%
residual activity (NUAK2 (human)): 89.7%
residual activity (PDPK1 (human)): 96.8%
residual activity (PLK3 (human)): 97.1%
residual activity (PRKCD (human)): 100%
residual activity (PRKCH (human)): 94.9%
residual activity (PRKD2 (human)): 86.9%
residual activity (PTK2B (human)): 95.8%
residual activity (RET (human)): 39.3%
residual activity (RPS6KA5 KD2 (human)): 95.8%
residual activity (SIK2 (human)): 109%
residual activity (SRMS (human)): 85.7%
residual activity (SRPK2 (human)): 95.6%
residual activity (TBK1 (human)): 85.4%
residual activity (TEC (human)): 120%
residual activity (TGFBR1 (human)): 96.9%

N#C/C(=C1/Nc2ccccc2S1)c1ccnc(NCCc2cccnc2)n1
residual activity (ACVR1 (human)): 100%
residual activity (AURKB (human)): 94%
residual activity (BTK (human)): 88.8%
residual activity (CDK2 CCNE1 (human)): 82.7%
residual activity (CDK7 CCNH MNAT1 (human)): 93.2%
residual activity (CHEK1 (human)): 94.6%
residual activity (CLK2 (human)): 48.5%
residual activity (CSNK1D (human)): 65%
residual activity (DAPK2 (human)): 119%
residual activity (EPHA3 (human)): 75.1%
residual activity (EPHB4 (human)): 99.7%
residual activity (ERBB4 (human)): 83.1%
residual activity (FGFR2 (human)): 102%
residual activity (FRK (human)): 97.5%
residual activity (HIPK2 (human)): 95.8%
residual activity (IRAK1 (human)): 91.8%
residual activity [1]: 113%
residual activity (MAPK3 (human)): 99.4%
residual activity (MATK (human)): 89.8%
residual activity (MUSK (human)): 14.8%
residual activity (MYLK (human)): 97.9%
residual activity (MYLK2 (human)): 92.8%
residual activity (NEK1 (human)): 70%
residual activity (NEK2 (human)): 87.8%
residual activity (NEK4 (human)): 89.1%
residual activity (NEK6 (human)): 101%
residual activity (NEK9 (human)): 94.4%
residual activity (NUAK2 (human)): 72.5%
residual activity (PDPK1 (human)): 95.9%
residual activity (PLK3 (human)): 94.7%
residual activity (PRKCD (human)): 92.2%
residual activity (PRKCH (human)): 98.7%
residual activity (PRKD2 (human)): 79.2%
residual activity (PTK2B (human)): 98.7%
residual activity (RET (human)): 70.1%
residual activity (RPS6KA5 KD2 (human)): 98.9%
residual activity (SIK2 (human)): 96.4%
residual activity (SRMS (human)): 106%
residual activity (SRPK2 (human)): 97.1%
residual activity (TBK1 (human)): 100%
residual activity (TEC (human)): 104%
residual activity (TGFBR1 (human)): 97.8%
